Data reported in paper PMC6073568, “Efficient Lead Finding, Activity Enhancement and Preliminary Selectivity Control of Nuclear Receptor Ligands Bearing a Phenanthridinone Skeleton” (International Journal of Molecular Sciences, 2018).

Biological target: T1, LXRβ (Homo sapiens, UniProt P55055)
T1 construct: CMX-GAL4N-hLXRβ-LBD; expressed in transfected cells; host or cells: HEK293
T1 sequence (P55055 222-460 limits assumed): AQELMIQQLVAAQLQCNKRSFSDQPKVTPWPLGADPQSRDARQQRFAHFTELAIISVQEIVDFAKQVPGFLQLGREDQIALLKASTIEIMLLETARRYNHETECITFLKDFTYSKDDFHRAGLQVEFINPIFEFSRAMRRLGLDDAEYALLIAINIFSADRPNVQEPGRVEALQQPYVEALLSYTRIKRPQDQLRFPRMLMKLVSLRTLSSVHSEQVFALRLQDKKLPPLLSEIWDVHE
Assay: LXRβ reporter gene assay in HEK293
Type: cell-based
Conditions: read-out: LXRβ antagonistic activity (IC50)

Which IC50 does the source give for CCCCn1c(=O)c2cc(OC)ccc2c2cc(C(O)(C(F)(F)F)C(F)(F)F)c(OC)cc21 [Compound 27] here?
The IC50 was 18 µM.

For CCCCn1c(=O)c2cc(OC)ccc2c2cc(C(O)(C(F)(F)F)C(F)(F)F)cc(OC)c21 [Compound 28], which IC50 is on record?
Its IC50 is over 10 µM.

For CCCCn1c(=O)c2c(OC)c(OC)ccc2c2cc(C(O)(C(F)(F)F)C(F)(F)F)ccc21 [Compound 29], which IC50 is on record?
The IC50 was 3.2 µM.

For CCCCn1c(=O)c2c(OC)cc(OC)cc2c2cc(C(O)(C(F)(F)F)C(F)(F)F)ccc21 [Compound 30], which IC50 is on record?
The IC50 was over 20 µM.

For CCCCn1c(=O)c2cc(OC)c(OC)cc2c2cc(C(O)(C(F)(F)F)C(F)(F)F)ccc21 [Compound 31], which IC50 is on record?
The IC50 was 8.9 µM.

For O=c1[nH]c2c(F)cc(C(O)(C(F)(F)F)C(F)(F)F)cc2c2ccccc12 [Compound 32], which IC50 is on record?
Its IC50 is 4.6 µM.

With O=c1[nH]c2ccc(C(O)(C(F)(F)F)C(F)(F)F)cc2c2cccc(F)c12 [Compound 33] as the molecule, how does the IC50 read?
Its IC50 is 3.1 µM.

Which IC50 does the source give for O=c1[nH]c2ccc(C(O)(C(F)(F)F)C(F)(F)F)cc2c2ccc(F)cc12 [Compound 34] here?
Its IC50 is 6 µM.

Which IC50 does the source give for O=c1[nH]c2ccc(C(O)(C(F)(F)F)C(F)(F)F)cc2c2cc(F)ccc12 [Compound 35] here?
The IC50 was 5.4 µM.

With COc1cc(C(O)(C(F)(F)F)C(F)(F)F)cc2c1[nH]c(=O)c1ccccc12 [Compound 39] as the molecule, how does the IC50 read?
Its IC50 is over 20 µM.

Which IC50 does the source give for CCc1cc(C(O)(C(F)(F)F)C(F)(F)F)cc2c1[nH]c(=O)c1ccccc12 [Compound 41] here?
The IC50 was over 20 µM.

With CCCc1cc(C(O)(C(F)(F)F)C(F)(F)F)cc2c1[nH]c(=O)c1ccccc12 [Compound 42] as the molecule, how does the IC50 read?
Its IC50 is 20 µM.

With O=c1[nH]c2c(Cl)cc(C(O)(C(F)(F)F)C(F)(F)F)cc2c2ccccc12 [Compound 43, 4-Chloro-2-(1,1,1,3,3,3-hexafluoro-2-hydroxypropan-2-yl)phenanthridin-6(5H)-one] as the molecule, how does the IC50 read?
The IC50 was over 20 µM.

Biological target: T2, RORβ (Homo sapiens, UniProt Q92753)
T2 construct: expressed in transfected cells; host or cells: HEK293
T2 sequence (Q92753 1-459 isoform Q92753-1): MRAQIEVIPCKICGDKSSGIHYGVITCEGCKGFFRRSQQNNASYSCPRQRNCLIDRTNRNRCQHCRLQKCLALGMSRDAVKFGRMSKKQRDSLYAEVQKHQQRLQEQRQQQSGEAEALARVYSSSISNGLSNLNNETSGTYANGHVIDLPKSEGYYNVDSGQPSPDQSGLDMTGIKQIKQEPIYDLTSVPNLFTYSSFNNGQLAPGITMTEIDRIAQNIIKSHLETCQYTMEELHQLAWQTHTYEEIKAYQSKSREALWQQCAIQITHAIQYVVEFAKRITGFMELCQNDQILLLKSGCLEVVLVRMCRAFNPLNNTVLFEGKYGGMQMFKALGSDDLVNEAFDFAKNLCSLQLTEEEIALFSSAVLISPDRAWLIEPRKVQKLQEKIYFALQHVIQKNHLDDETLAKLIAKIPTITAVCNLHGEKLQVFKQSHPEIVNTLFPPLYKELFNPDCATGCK
Assay: not given
Conditions: reporter gene assay, HEK293; read-out: RORβ inverse agonistic activity (IC50); cited from earlier work

Which IC50 does the source give for O=c1[nH]c2ccc(C(O)(C(F)(F)F)C(F)(F)F)cc2c2ccccc12 [Compound 1] here?
The IC50 was over 20 µM.

With Cn1c(=O)c2ccccc2c2cc(C(O)(C(F)(F)F)C(F)(F)F)ccc21 [Compound 13] as the molecule, how does the IC50 read?
The IC50 was over 20 µM.

Which IC50 does the source give for CCCCn1c(=O)c2cc(OC)ccc2c2cc(C(O)(C(F)(F)F)C(F)(F)F)c(OC)cc21 [Compound 27] here?
The IC50 was 13 µM.

Which IC50 does the source give for CCCCn1c(=O)c2cc(OC)ccc2c2cc(C(O)(C(F)(F)F)C(F)(F)F)cc(OC)c21 [Compound 28] here?
The IC50 was 11 µM.

For CCCCn1c(=O)c2c(OC)c(OC)ccc2c2cc(C(O)(C(F)(F)F)C(F)(F)F)ccc21 [Compound 29], which IC50 is on record?
The IC50 was 7.7 µM.

With CCCCn1c(=O)c2c(OC)cc(OC)cc2c2cc(C(O)(C(F)(F)F)C(F)(F)F)ccc21 [Compound 30] as the molecule, how does the IC50 read?
The IC50 was over 20 µM.

For CCCCn1c(=O)c2cc(OC)c(OC)cc2c2cc(C(O)(C(F)(F)F)C(F)(F)F)ccc21 [Compound 31], which IC50 is on record?
Its IC50 is 16 µM.

With O=c1[nH]c2c(F)cc(C(O)(C(F)(F)F)C(F)(F)F)cc2c2ccccc12 [Compound 32] as the molecule, how does the IC50 read?
Its IC50 is 14 µM.

Which IC50 does the source give for O=c1[nH]c2ccc(C(O)(C(F)(F)F)C(F)(F)F)cc2c2cccc(F)c12 [Compound 33] here?
Its IC50 is 9.8 µM.

With O=c1[nH]c2ccc(C(O)(C(F)(F)F)C(F)(F)F)cc2c2ccc(F)cc12 [Compound 34] as the molecule, how does the IC50 read?
Its IC50 is 11 µM.

Which IC50 does the source give for O=c1[nH]c2ccc(C(O)(C(F)(F)F)C(F)(F)F)cc2c2cc(F)ccc12 [Compound 35] here?
Its IC50 is 8.3 µM.

For COc1cc(C(O)(C(F)(F)F)C(F)(F)F)cc2c1[nH]c(=O)c1ccccc12 [Compound 39], which IC50 is on record?
Its IC50 is over 20 µM.

With CCc1cc(C(O)(C(F)(F)F)C(F)(F)F)cc2c1[nH]c(=O)c1ccccc12 [Compound 41] as the molecule, how does the IC50 read?
Its IC50 is over 20 µM.

Which IC50 does the source give for CCCc1cc(C(O)(C(F)(F)F)C(F)(F)F)cc2c1[nH]c(=O)c1ccccc12 [Compound 42] here?
Its IC50 is 11 µM.

Biological target: T3, RORγ (Homo sapiens, UniProt P51449)
T3 construct: expressed in transfected cells; host or cells: HEK293
T3 sequence (P51449 1-518): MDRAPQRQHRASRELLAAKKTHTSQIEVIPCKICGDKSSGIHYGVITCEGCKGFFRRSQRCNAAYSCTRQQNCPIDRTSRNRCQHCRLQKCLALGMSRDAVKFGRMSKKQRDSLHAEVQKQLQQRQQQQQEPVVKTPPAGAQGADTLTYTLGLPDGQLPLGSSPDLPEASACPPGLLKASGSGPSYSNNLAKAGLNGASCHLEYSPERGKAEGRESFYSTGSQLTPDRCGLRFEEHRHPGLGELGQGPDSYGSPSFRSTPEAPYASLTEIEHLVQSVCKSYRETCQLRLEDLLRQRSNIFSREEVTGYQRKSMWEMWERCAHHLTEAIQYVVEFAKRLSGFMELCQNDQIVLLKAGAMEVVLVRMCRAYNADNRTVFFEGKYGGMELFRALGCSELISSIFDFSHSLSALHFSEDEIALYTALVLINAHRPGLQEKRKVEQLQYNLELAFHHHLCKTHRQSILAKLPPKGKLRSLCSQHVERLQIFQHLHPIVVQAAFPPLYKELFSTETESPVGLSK
Assay: not given
Conditions: reporter gene assay, HEK293; read-out: RORγ inverse agonistic activity (IC50); cited from earlier work

With O=c1[nH]c2ccc(C(O)(C(F)(F)F)C(F)(F)F)cc2c2ccccc12 [Compound 1] as the molecule, how does the IC50 read?
Its IC50 is over 20 µM.

With Cn1c(=O)c2ccccc2c2cc(C(O)(C(F)(F)F)C(F)(F)F)ccc21 [Compound 13] as the molecule, how does the IC50 read?
Its IC50 is over 20 µM.

With CCCCn1c(=O)c2cc(OC)ccc2c2cc(C(O)(C(F)(F)F)C(F)(F)F)c(OC)cc21 [Compound 27] as the molecule, how does the IC50 read?
Its IC50 is 12 µM.

For CCCCn1c(=O)c2cc(OC)ccc2c2cc(C(O)(C(F)(F)F)C(F)(F)F)cc(OC)c21 [Compound 28], which IC50 is on record?
Its IC50 is 9.7 µM.

For CCCCn1c(=O)c2c(OC)c(OC)ccc2c2cc(C(O)(C(F)(F)F)C(F)(F)F)ccc21 [Compound 29], which IC50 is on record?
The IC50 was 8 µM.

For CCCCn1c(=O)c2c(OC)cc(OC)cc2c2cc(C(O)(C(F)(F)F)C(F)(F)F)ccc21 [Compound 30], which IC50 is on record?
Its IC50 is over 20 µM.

For CCCCn1c(=O)c2cc(OC)c(OC)cc2c2cc(C(O)(C(F)(F)F)C(F)(F)F)ccc21 [Compound 31], which IC50 is on record?
The IC50 was 19 µM.

With O=c1[nH]c2c(F)cc(C(O)(C(F)(F)F)C(F)(F)F)cc2c2ccccc12 [Compound 32] as the molecule, how does the IC50 read?
Its IC50 is 18 µM.

Which IC50 does the source give for O=c1[nH]c2ccc(C(O)(C(F)(F)F)C(F)(F)F)cc2c2cccc(F)c12 [Compound 33] here?
The IC50 was 13 µM.

With O=c1[nH]c2ccc(C(O)(C(F)(F)F)C(F)(F)F)cc2c2ccc(F)cc12 [Compound 34] as the molecule, how does the IC50 read?
The IC50 was over 20 µM.

With O=c1[nH]c2ccc(C(O)(C(F)(F)F)C(F)(F)F)cc2c2cc(F)ccc12 [Compound 35] as the molecule, how does the IC50 read?
Its IC50 is 5 µM.

With COc1cc(C(O)(C(F)(F)F)C(F)(F)F)cc2c1[nH]c(=O)c1ccccc12 [Compound 39] as the molecule, how does the IC50 read?
Its IC50 is 9.6 µM.

With CCc1cc(C(O)(C(F)(F)F)C(F)(F)F)cc2c1[nH]c(=O)c1ccccc12 [Compound 41] as the molecule, how does the IC50 read?
The IC50 was over 20 µM.

Which IC50 does the source give for CCCc1cc(C(O)(C(F)(F)F)C(F)(F)F)cc2c1[nH]c(=O)c1ccccc12 [Compound 42] here?
Its IC50 is 9.9 µM.

Biological target: T4, PR (Homo sapiens, UniProt P06401)
T4 sequence (P06401 1-933): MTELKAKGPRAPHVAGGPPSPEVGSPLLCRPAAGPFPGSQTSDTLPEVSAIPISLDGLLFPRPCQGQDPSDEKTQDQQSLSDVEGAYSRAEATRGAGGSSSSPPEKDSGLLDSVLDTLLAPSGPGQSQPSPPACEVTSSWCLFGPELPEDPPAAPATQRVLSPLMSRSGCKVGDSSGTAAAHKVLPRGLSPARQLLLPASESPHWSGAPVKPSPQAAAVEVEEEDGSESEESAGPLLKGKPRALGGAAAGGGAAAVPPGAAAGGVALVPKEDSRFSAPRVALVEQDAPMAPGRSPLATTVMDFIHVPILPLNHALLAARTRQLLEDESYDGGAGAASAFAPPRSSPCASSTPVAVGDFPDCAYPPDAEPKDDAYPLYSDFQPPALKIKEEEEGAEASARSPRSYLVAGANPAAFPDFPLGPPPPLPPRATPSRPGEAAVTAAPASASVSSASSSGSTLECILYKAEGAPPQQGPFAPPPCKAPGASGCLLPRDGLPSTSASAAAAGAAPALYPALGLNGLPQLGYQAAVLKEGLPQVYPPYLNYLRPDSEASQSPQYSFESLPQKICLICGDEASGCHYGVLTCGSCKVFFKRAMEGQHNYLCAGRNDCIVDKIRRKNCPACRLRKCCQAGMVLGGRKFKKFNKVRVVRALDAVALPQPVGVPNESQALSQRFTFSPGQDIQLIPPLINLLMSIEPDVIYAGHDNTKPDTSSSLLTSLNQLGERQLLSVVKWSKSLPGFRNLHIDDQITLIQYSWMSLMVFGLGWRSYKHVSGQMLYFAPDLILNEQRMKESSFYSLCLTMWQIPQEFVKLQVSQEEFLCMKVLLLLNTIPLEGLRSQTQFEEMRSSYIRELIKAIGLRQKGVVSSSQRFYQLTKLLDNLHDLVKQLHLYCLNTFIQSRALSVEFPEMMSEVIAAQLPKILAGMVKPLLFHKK
Assay: not given
Conditions: alkaline phosphatase, T47D cells, progesterone 1 nM; read-out: PR antagonistic activity (IC50); cited from earlier work

For CCCCn1c(=O)c2cc(OC)ccc2c2cc(C(O)(C(F)(F)F)C(F)(F)F)c(OC)cc21 [Compound 27], which IC50 is on record?
The IC50 was 0.3 µM.

For CCCCn1c(=O)c2cc(OC)ccc2c2cc(C(O)(C(F)(F)F)C(F)(F)F)cc(OC)c21 [Compound 28], which IC50 is on record?
The IC50 was 0.34 µM.

For CCCCn1c(=O)c2c(OC)c(OC)ccc2c2cc(C(O)(C(F)(F)F)C(F)(F)F)ccc21 [Compound 29], which IC50 is on record?
The IC50 was 4.2 µM.

Which IC50 does the source give for CCCCn1c(=O)c2c(OC)cc(OC)cc2c2cc(C(O)(C(F)(F)F)C(F)(F)F)ccc21 [Compound 30] here?
Its IC50 is over 20 µM.

With CCCCn1c(=O)c2cc(OC)c(OC)cc2c2cc(C(O)(C(F)(F)F)C(F)(F)F)ccc21 [Compound 31] as the molecule, how does the IC50 read?
The IC50 was 9.6 µM.
